These are literature values, as cited in patent publication US11534589B2, “Iontophoretic microneedle device” (LTS LOHMANN THERAPIE-SYSTEME AG, priority 2017, dated 2022).

Like-named read-outs stand apart in the source and are kept apart here.

The conditions of data set [1]: maltose microneedles combined with iontophoresis, hairless rats.

Consider `CN(Cc1cnc2nc(N)nc(N)c2n1)c1ccc(C(=O)N[C@@H](CCC(=O)O)C(=O)O)cc1` [methotrexate], for which the Increase in delivery in data set [1] is recorded as 25 fold.
On to `CNS(=O)(=O)Cc1ccc2[nH]cc(CCN(C)C)c2c1.O=C(O)CCC(=O)O` [sumatriptan, 3-[2-(dimethylamino)ethyl]-N-methyl-indole-5-methane-sulfonamide succinate (1:1)], for which the Bioavailability is, setting by setting: (nasal spray) ≤ 14%; (oral tablet) “not more than 15%”.
